Reference: US9611278B2 (Merck Sharp & Dohme Corp., priority 2013, dated 2017)

Molecular target: T1, sGC α1/β1 heterodimer stably expressed in CHO-K1 cells (CHO-K1/sGC) (Homo sapiens, UniProt Q02108+Q02153)
T1 construct: expressed in transfected cells
T1 sequence (Q02108 1-690): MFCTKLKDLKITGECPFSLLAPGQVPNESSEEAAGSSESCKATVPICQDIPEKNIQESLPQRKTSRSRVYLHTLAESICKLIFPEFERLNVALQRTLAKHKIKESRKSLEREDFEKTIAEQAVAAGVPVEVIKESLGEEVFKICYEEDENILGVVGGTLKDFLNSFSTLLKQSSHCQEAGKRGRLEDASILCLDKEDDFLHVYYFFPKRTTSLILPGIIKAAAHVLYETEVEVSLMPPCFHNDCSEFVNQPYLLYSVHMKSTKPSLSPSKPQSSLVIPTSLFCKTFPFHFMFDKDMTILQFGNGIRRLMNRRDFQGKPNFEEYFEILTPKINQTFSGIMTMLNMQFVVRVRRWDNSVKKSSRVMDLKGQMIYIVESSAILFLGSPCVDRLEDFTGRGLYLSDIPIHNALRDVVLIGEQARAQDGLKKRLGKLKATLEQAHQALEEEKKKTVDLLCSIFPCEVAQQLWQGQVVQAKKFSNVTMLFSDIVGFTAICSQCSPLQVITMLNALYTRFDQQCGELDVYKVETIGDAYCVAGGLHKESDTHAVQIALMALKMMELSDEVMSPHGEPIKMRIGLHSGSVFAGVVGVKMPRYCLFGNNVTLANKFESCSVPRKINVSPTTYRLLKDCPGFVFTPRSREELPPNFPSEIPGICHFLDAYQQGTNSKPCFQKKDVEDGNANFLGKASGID
T1 sequence (Q02153 1-619): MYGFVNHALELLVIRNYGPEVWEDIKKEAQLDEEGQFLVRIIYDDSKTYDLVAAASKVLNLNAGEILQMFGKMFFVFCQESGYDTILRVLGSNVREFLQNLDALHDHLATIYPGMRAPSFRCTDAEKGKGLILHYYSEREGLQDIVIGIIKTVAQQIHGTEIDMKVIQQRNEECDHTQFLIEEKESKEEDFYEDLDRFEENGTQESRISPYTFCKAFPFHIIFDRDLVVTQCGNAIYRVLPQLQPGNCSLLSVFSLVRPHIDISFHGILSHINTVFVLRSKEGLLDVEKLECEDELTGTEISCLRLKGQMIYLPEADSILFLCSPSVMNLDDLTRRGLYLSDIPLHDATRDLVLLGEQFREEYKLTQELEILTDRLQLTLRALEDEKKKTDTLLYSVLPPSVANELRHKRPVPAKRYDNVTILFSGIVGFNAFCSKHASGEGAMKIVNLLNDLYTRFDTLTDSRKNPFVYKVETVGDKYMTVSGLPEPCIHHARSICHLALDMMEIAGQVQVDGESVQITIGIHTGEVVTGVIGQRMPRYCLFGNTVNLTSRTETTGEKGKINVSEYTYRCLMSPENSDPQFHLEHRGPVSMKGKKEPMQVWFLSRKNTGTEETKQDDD
Experiment: Cell-based sGC Functional Assay (CASA Assay)
Conditions: for Emax: CHO-K1, activation as percentage of maximum cGMP production of Compound A (set to 100%), read-out: % Act.; for EC50: inflection point of cGMP generation in CHO-K1/sGC cells, 4P fit, 1 hr at 37° C., read-out: IP
Source text: sGC is a heme-containing enzyme that converts GTP to secondary messenger cGMP. Increases in cGMP levels affect several physiological processes including vasorelaxation through multiple downstream pathways. […] Heme-dependent activators (HDAs) preferentially activate sGC containing a ferrous heme group. To determine the effect of sGC activators on enzyme activity, the CASA assay was developed to monitor the generation of cGMP in a cell line that stably expresses the heterodimeric sGC protein.
A CHO-K1 cell line stably expressing the sGC α1/β1 heterodimer was generated using a standard transfection protocol. CHO-K1 cells were transfected with plasmids pIREShyghsGCα1 and pIRESneo-hsGCβ1 simultaneously using FUGENE reagent. Clones that stably express both subunits were selected with hygromycin and neomycin for ˜2 weeks. Clone #7 was chosen for the assay and was designated CHO-K1/sGC. CHO-K1/sGC cells were maintained in F-K12 medium containing 10% heat-inactivated Fetal Bovine Serum (FBS), 100 μg/mL penicillin/streptomycin, 0.5 mg/mL hygromycin and 0.25 mg/mL G418. The cells were then cryopreserved in LN2. On the day of the assay, cells thawed and resuspended in EBSS Assay Buffer (EAB, Sigma, E3024) supplemented with 5 mM MgCl2, 10 mM HEPES (4-(2-hydroxyethyl)piperazine-1-ethanesulfonic acid) and 0.05% BSA (bovine serum albumin) and cell density was then adjusted to 4×10^5/mL with EAB. IBMX (3-isobutyl-1-methylxanthin, 0.5 mM) was added to inhibit degradation of cGMP. Compounds were diluted from DMSO stock solutions and added to the assay at a final DMSO concentration of 2.5%. Cells were incubated with compounds in the presence and absence of 1 μM of Diethylenetriamine/nitric oxide adduct (DETA-NO; Sigma, 17018) for 1 hr at 37° C. At the end of the incubation period, the reaction was terminated and the cells were lysed with the detection reagents from Cisbio Kits. The level of intracellular cGMP was determined using an HTRF-based assay kit (CisBio, 62GM2PEC), which detects the displacement of a fluorescence labeled cGMP from its specific antibody. The cGMP produced by test compounds was directly compared to the maximum cGMP production (this value was set to equal 100% activation.) of the published sGC-HDA Compound A:
(Example 1 in WO 2010/065275, published Jun. 10, 2010). The test compounds' activity were then expressed as a percentage of Compound A, the standard in every experiment. This percent activation was calculated either in the presence or absence of DETA-NO which was then plotted. IP and maximum fold induction was derived using ADA analysis software for 4P fit.

[2H]C([2H])([2H])n1ncc2c(-c3nc(N)c4c(n3)NC(=O)C4(C)c3ccc4cccnc4c3)nc(CCC(F)(F)C(F)(F)F)nc21 (stereo not shown) [Example 13, 4-Amino-5-methyl-2-(1-(methyl-d3)-6-(3,3,4,4,4-pentafluorobutyl)-1H-pyrazolo[3,4-d]pyrimidin-4-yl)-5-(quinolin-7-yl)-5,7-dihydro-6H-pyrrolo[2,3-d]pyrimidin-6-one]
Emax: 89%
EC50: 29 nM

[2H]C([2H])([2H])n1ncc2c(-c3nc(N)c4c(n3)NC(=O)C4(C)c3cncc(OC)c3)nc(CCC(F)(F)C(F)(F)F)nc21 (stereo not shown) [Example 14, 4-Amino-5-(5-methoxypyridin-3-yl)-5-methyl-2-(1-(methyl-d3)-6-(3,3,4,4,4-pentafluorobutyl)-1H-pyrazolo[3,4-d]pyrimidin-4-yl)-5,7-dihydro-6H-pyrrolo[2,3-d]pyrimidin-6-one]
Emax: 131%
EC50: 709 nM

Cn1cc(C2(C3CC3)C(=O)Nc3nc(-c4nc(CCC(F)(F)C(F)(F)F)nc5c4cnn5C)nc(N)c32)cn1 (stereo not shown) [Example 15, 4-Amino-5-cyclopropyl-5-(1-methyl-1H-pyrazol-4-yl)-2-(1-methyl-6-(3,3,4,4,4-pentafluorobutyl)-1H-pyrazolo[3,4-d]pyrimidin-4-yl)-5,7-dihydro-6H-pyrrolo[2,3-d]pyrimidin-6-one]
Emax: 100%
EC50: 475 nM

Cn1ncc2c(-c3nc(N)c4c(n3)NC(=O)C4(c3cnoc3)C3CC3)nc(CCC(F)(F)C(F)(F)F)nc21 (stereo not shown) [Example 16, 4-Amino-5-cyclopropyl-5-(isoxazol-4-yl)-2-(1-methyl-6-(3,3,4,4,4-pentafluorobutyl)-1H-pyrazolo[3,4-d]pyrimidin-4-yl)-5,7-dihydro-6H-pyrrolo[2,3-d]pyrimidin-6-one]
Emax: 107%
EC50: 160 nM

CCC1(c2ccc(OC)nc2)C(=O)Nc2nc(-c3nc(CCC(F)(F)C(F)(F)F)nc4c3cnn4C)nc(N)c21 (stereo not shown) [Example 17, 4-Amino-5-ethyl-5-(6-methoxypyridin-3-yl)-2-(1-methyl-6-(3,3,4,4,4-pentafluorobutyl)-1H-pyrazolo[3,4-d]pyrimidin-4-yl)-5,7-dihydro-6H-pyrrolo[2,3-d]pyrimidin-6-one]
Emax: 116%
EC50: 122 nM

[2H]C([2H])([2H])n1ncc2c(-c3nc(N)c4c(n3)NC(=O)C4(C)c3ccnc(C(=O)OC)c3)nc(CCC(F)(F)C(F)(F)F)nc21 (stereo not shown) [Example 18, Methyl 4-(4-amino-5-methyl-2-(1-(methyl-d3)-6-(3,3,4,4,4-pentafluorobutyl)-1H-pyrazolo[3,4-d]pyrimidin-4-yl)-6-oxo-6,7-dihydro-5H-pyrrolo[2,3-d]pyrimidin-5-yl)picolinate]
Emax: 88%
EC50: 411 nM

Cc1nc(C2(C)C(=O)Nc3nc(-c4nc(CCC(F)(F)C(F)(F)F)nc5c4cnn5C)nc(N)c32)no1 (stereo not shown) [Example 20, 4-Amino-5-methyl-5-(5-methyl-1,2,4-oxadiazol-3-yl)-2-(1-methyl-6-(3,3,4,4,4-pentafluorobutyl)-1H-pyrazolo[3,4-d]pyrimidin-4-yl)-5,7-dihydro-6H-pyrrolo[2,3-d]pyrimidin-6-one]
Emax: 132%
EC50: 103 nM

Cn1ncc2c(-c3nc(N)c4c(n3)NC(=O)C4(C)c3ccccn3)nc(CCCC(F)(F)F)nc21 (stereo not shown) [Example 21, 4-Amino-5-methyl-2-(1-methyl-6-(4,4,4-trifluorobutyl)-1H-pyrazolo[3,4-d]pyrimidin-4-yl)-5-(pyridin-2-yl)-5,7-dihydro-6H-pyrrolo[2,3-d]pyrimidin-6-one]
Emax: 111%
EC50: 138 nM

Cn1ncc2c(-c3nc(N)c4c(n3)NC(=O)C4(C)c3ccccn3)nc(CCC(F)(F)C(F)(F)F)nc21 (stereo not shown) [Example 22, 4-Amino-5-methyl-2-(1-methyl-6-(3,3,4,4,4-pentafluorobutyl)-1H-pyrazolo[3,4-d]pyrimidin-4-yl)-5-(pyridin-2-yl)-5,7-dihydro-6H-pyrrolo[2,3-d]pyrimidin-6-one]
Emax: 103%
EC50: 71 nM

Cn1cc(C2(C)C(=O)Nc3nc(-c4nc(CCC(F)(F)C(F)(F)F)nc5c4cnn5C)nc(N)c32)cn1 (stereo not shown) [Example 23, 4-Amino-5-methyl-5-(1-methyl-1H-pyrazol-4-yl)-2-(1-methyl-6-(3,3,4,4,4-pentafluorobutyl)-1H-pyrazolo[3,4-d]pyrimidin-4-yl)-5,7-dihydro-6H-pyrrolo[2,3-d]pyrimidin-6-one]
Emax: 88%
EC50: 435 nM

[2H]C([2H])([2H])n1ncc2c(-c3nc(N)c4c(n3)NC(=O)C4(c3cnn(C)c3)C3CC3)nc(CCC(F)(F)C(F)(F)F)nc21 (stereo not shown) [Example 24, 4-Amino-5-cyclopropyl-5-(1-methyl-1H-pyrazol-4-yl)-2-(1-(methyl-d3)-6-(3,3,4,4,4-pentafluorobutyl)-1H-pyrazolo[3,4-d]pyrimidin-4-yl)-5,7-dihydro-6H-pyrrolo[2,3-d]pyrimidin-6-one]
Emax: 84%
EC50: 885 nM

CC(C)n1cc(C2(C3CC3)C(=O)Nc3nc(-c4nc(CCC(F)(F)C(F)(F)F)nc5c4cnn5C)nc(N)c32)cn1 (stereo not shown) [Example 26, 4-Amino-5-cyclopropyl-5-(1-isopropyl-1H-pyrazol-4-yl)-2-(1-methyl-6-(3,3,4,4,4-pentafluorobutyl)-1H-pyrazolo[3,4-d]pyrimidin-4-yl)-5,7-dihydro-6H-pyrrolo[2,3-d]pyrimidin-6-one]
Emax: 72%
EC50: 230 nM

Cn1ncc2c(-c3nc(N)c4c(n3)NC(=O)C4(c3ncco3)C3CC3)nc(CCC(F)(F)C(F)(F)F)nc21 (stereo not shown) [Example 28, 4-Amino-5-cyclopropyl-2-(1-methyl-6-(3,3,4,4,4-pentafluorobutyl)-1H-pyrazolo[3,4-d]pyrimidin-4-yl)-5-(oxazol-2-yl)-5,7-dihydro-6H-pyrrolo[2,3-d]pyrimidin-6-one]
Emax: 126%
EC50: 891 nM

Cn1ncc2c(-c3nc(N)c4c(n3)NC(=O)C4(C)c3ccc(F)cn3)nc(CCC3CC(F)(F)C3)nc21 (stereo not shown) [Example 29, 4-Amino-2-(6-(2-(3,3-difluorocyclobutyl)ethyl)-1-methyl-1H-pyrazolo[3,4-d]pyrimidin-4-yl)-5-(5-fluoropyridin-2-yl)-5-methyl-5,7-dihydro-6H-pyrrolo[2,3-d]pyrimidin-6-one]
Emax: 121%
EC50: 230 nM
